Measured values taken from patent publication US20020137929A1, “1 - (3-heterocyclylphenyl) isothiourea, -isourea, -guanidine and -amidine herbicidal agents” (Intellectual Property Department, BASF Aktiengesellschaft, priority 1998, published 2002).

Tests used:
[1] = tested on: IPOHE (Morningglory, Ivyleaf); test: Preemergence herbicidal evaluation; assay type: in vivo, Ipomoea hederacea; conditions: preemergence, rated 4-5 weeks after treatment, 0-9 scale
Outline: (§1)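 Sown cups got a single aqueous acetone spray of test compound (roughly 0.0156–0.500 kg/ha) before seedlings emerged. Evaluation, 4–5 weeks on, used a 0–9 visual scale covering plant stand, vigor, size, malformation, chlorosis and general appearance compared with controls.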

[2] = tested on: GALAP (Galium); test: Postemergence herbicidal evaluation; assay type: in vivo, Galium aparine; conditions: postemergence
Outline: (§2)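 Scores (0–9) reflect plant stand, vigor, malformation, size, chlorosis and general appearance relative to control, read 4 to 5 weeks after treatment and averaged where tests were repeated. Application: about 0.0156–0.500 kg/ha sprayed at 40 psi onto two-week seedlings.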

[3] = tested on: CYPSE (Flatsedge); test: Postemergence weed control under flooded paddy conditions; assay type: in vivo, Cyperus serotinus; conditions: postemergence weeds, rated 3 to 4 weeks after treatment
Outline: (§3)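 Herbicidal effect is judged by eye on a 0–9 scale versus control, 3–4 weeks after dosing. Dosing is into flood water kept 1.5–3 cm over the soil, at about 0.0313–0.500 kg/ha in aqueous/acetone 50/50 v/v, on 3–5 cm weeds and 1.5–2.5-leaf rice seedlings.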

[4] = tested on: AMBEL (Ragweed, Common); test: Preemergence herbicidal evaluation; assay type: in vivo, Ambrosia artemisifolia; conditions: preemergence, rated 4-5 weeks after treatment, 0-9 scale
Outline: as §1

[5] = tested on: ECHORC (Watergrass (Calif.)); test: Preemergence weed control under flooded paddy conditions; assay type: in vivo, Echinochloa oryzoides; conditions: rated 3-4 weeks after treatment
Outline: (§4)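 Visual injury scored 0-9 against control three to four weeks post-treatment, greenhouse-grown. Application: acetone/water (50/50) solutions dosed directly into flood water (1.5-3 cm over silt loam, planted top 0.5 cm), roughly 0.0313 to 0.500 kg/ha active ingredient.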

[6] = tested on: ECHORC (Watergrass (Calif.)); test: Postemergence weed control under flooded paddy conditions; assay type: in vivo, Echinochloa oryzoides; conditions: postemergence weeds, rated 3 to 4 weeks after treatment
Outline: as §3

[7] = tested on: CYPSE (Flatsedge); test: Preemergence weed control under flooded paddy conditions; assay type: in vivo, Cyperus serotinus; conditions: rated 3-4 weeks after treatment
Outline: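 Seeds or propagules sown in silt loam kept flooded 1.5-3 cm; compounds in 50/50 acetone/water pipetted into flood water at about 0.0313 to 0.500 kg/ha. Greenhouse; visual 0-9 rating versus untreated control 3-4 weeks after treatment.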

[8] = tested on: ZEAMX (Corn, Field); test: Postemergence herbicidal evaluation; assay type: in vivo, Zea mays; conditions: postemergence
Outline: as §2

[9] = tested on: CYPIR (Rice Flatsedge); test: Preemergence weed control under flooded paddy conditions; assay type: in vivo, Cyperus iria; conditions: rated 3-4 weeks after treatment
Outline: as §4

[10] = tested on: CHEAL (Lambsquarters, Common); test: Preemergence herbicidal evaluation; assay type: in vivo, Chenopodium album; conditions: preemergence, rated 4-5 weeks after treatment, 0-9 scale
Outline: as §1

[11] = tested on: TRZAWR (Wheat, Winter, cv Riband); test: Preemergence herbicidal evaluation; assay type: in vivo, Triticum aestivum; conditions: preemergence, rated 4-5 weeks after treatment, 0-9 scale
Outline: as §1

[12] = tested on: ORYSAT (Rice, Tebonnet); test: Preemergence herbicidal evaluation; assay type: in vivo, Oryza sativa, (L.) Tebonnet; conditions: preemergence, rated 4-5 weeks after treatment, 0-9 scale
Outline: as §1

[13] = tested on: ZEAMX (Corn, Field); test: Preemergence herbicidal evaluation; assay type: in vivo, Zea mays; conditions: preemergence, rated 4-5 weeks after treatment, 0-9 scale
Outline: as §1

[14] = tested on: CASOB (Sicklepod); test: Postemergence herbicidal evaluation; assay type: in vivo, Cassia obtusifolia; conditions: postemergence
Outline: as §2

C=CCN1C(=O)C(CC(=O)NS(C)(=O)=O)SC1=Nc1cc(-n2c(=O)cc(C(F)(F)F)n(C)c2=O)c(F)cc1Cl (centres unmarked) [Compound 96, 3-Allyl-2-{{2-chloro-5-[3,6-dihydro-3-methyl-2,6-dioxo-4-(trifluoromethyl)-1(2H)-pryimidinyl]-4-fluorophenyl}imino}-N-(methylsulfonyl)-4-oxo-5-thiazolidineacetamide]
IPOHE rating ([1]; 0.0313 kg/ha): 0.0 | IPOHE rating ([1]; 0.0625 kg/ha): 0.0 | IPOHE rating ([1]; 0.1250 kg/ha): 1.0 | IPOHE rating ([1]; 0.2500 kg/ha): 9.0 | IPOHE rating ([1]; 0.5000 kg/ha): 9.0 | GALAP herbicidal rating ([2]; rate 0.0156 kg/ha): 0.0 | GALAP herbicidal rating ([2]; rate 0.0313 kg/ha): 0.0 | GALAP herbicidal rating ([2]; rate 0.0625 kg/ha): 1.0 | GALAP herbicidal rating ([2]; rate 0.1250 kg/ha): 0.0 | Herbicidal rating CYPSE ([3]; Rate 0.0313 kg/ha): 0.0 | Herbicidal rating CYPSE ([3]; Rate 0.0625 kg/ha): 0.0 | Herbicidal rating CYPSE ([3]; Rate 0.1250 kg/ha): 0.0 | Herbicidal rating CYPSE ([3]; Rate 0.2500 kg/ha): 0.0 | AMBEL rating ([4]; 0.0313 kg/ha): 0.0 | AMBEL rating ([4]; 0.0625 kg/ha): 0.0 | AMBEL rating ([4]; 0.1250 kg/ha): 1.0 | AMBEL rating ([4]; 0.2500 kg/ha): 4.0 | AMBEL rating ([4]; 0.5000 kg/ha): 6.0 | ECHORC herbicidal effect rating ([5]; 0.0313 kg/ha): 0.0 | ECHORC herbicidal effect rating ([5]; 0.0625 kg/ha): 0.0 | ECHORC herbicidal effect rating ([5]; 0.1250 kg/ha): 0.0 | ECHORC herbicidal effect rating ([5]; 0.2500 kg/ha): 3.0 | Herbicidal rating ECHORC ([6]; Rate 0.0313 kg/ha): 0.0 | Herbicidal rating ECHORC ([6]; Rate 0.0625 kg/ha): 0.0 | Herbicidal rating ECHORC ([6]; Rate 0.1250 kg/ha): 0.0 | Herbicidal rating ECHORC ([6]; Rate 0.2500 kg/ha): 3.0 | CYPSE herbicidal effect rating ([7]; 0.0313 kg/ha): 0.0 | CYPSE herbicidal effect rating ([7]; 0.0625 kg/ha): 0.0 | CYPSE herbicidal effect rating ([7]; 0.1250 kg/ha): 0.0 | CYPSE herbicidal effect rating ([7]; 0.2500 kg/ha): 0.0 | ZEAMX herbicidal rating ([8]; rate 0.0156 kg/ha): 4.5 | ZEAMX herbicidal rating ([8]; rate 0.0313 kg/ha): 4.5 | ZEAMX herbicidal rating ([8]; rate 0.0625 kg/ha): 4.5 | ZEAMX herbicidal rating ([8]; rate 0.1250 kg/ha): 5.0 | CYPIR herbicidal effect rating ([9]; 0.0313 kg/ha): 0.0 | CYPIR herbicidal effect rating ([9]; 0.0625 kg/ha): 5.0 | CYPIR herbicidal effect rating ([9]; 0.1250 kg/ha): 6.0 | CYPIR herbicidal effect rating ([9]; 0.2500 kg/ha): 6.0 | CHEAL rating ([10]; 0.0313 kg/ha): 2.0 | CHEAL rating ([10]; 0.0625 kg/ha): 2.0 | CHEAL rating ([10]; 0.1250 kg/ha): 3.0 | CHEAL rating ([10]; 0.2500 kg/ha): 9.0 | CHEAL rating ([10]; 0.5000 kg/ha): 9.0 | TRZAWR rating ([11]; 0.0313 kg/ha): 0.0 | TRZAWR rating ([11]; 0.0625 kg/ha): 0.0 | TRZAWR rating ([11]; 0.1250 kg/ha): 0.0 | TRZAWR rating ([11]; 0.2500 kg/ha): 1.0 | TRZAWR rating ([11]; 0.5000 kg/ha): 1.0 | ORYSAT rating ([12]; 0.0313 kg/ha): 0.0 | ORYSAT rating ([12]; 0.0625 kg/ha): 0.0 | ORYSAT rating ([12]; 0.1250 kg/ha): 0.0 | ORYSAT rating ([12]; 0.2500 kg/ha): 1.0 | ORYSAT rating ([12]; 0.5000 kg/ha): 2.0 | ZEAMX rating ([13]; 0.0313 kg/ha): 0.0 | ZEAMX rating ([13]; 0.0625 kg/ha): 1.0 | ZEAMX rating ([13]; 0.1250 kg/ha): 0.0 | ZEAMX rating ([13]; 0.2500 kg/ha): 2.0 | ZEAMX rating ([13]; 0.5000 kg/ha): 4.0 | CASOB herbicidal rating ([14]; rate 0.0156 kg/ha): 0.0 | CASOB herbicidal rating ([14]; rate 0.0313 kg/ha): 0.0 | CASOB herbicidal rating ([14]; rate 0.0625 kg/ha): 1.0 | CASOB herbicidal rating ([14]; rate 0.1250 kg/ha): 0.0

CN1C(=O)C(CC(=O)NS(=O)(=O)c2ccccc2)SC1=Nc1cc(-n2c(=O)cc(C(F)(F)F)n(C)c2=O)c(F)cc1Cl (centres unmarked) [Compound 102, 2-{{2-Chloro-5-[3,6-dihydro-3-methyl-2,6-dioxo-4-(trifluoromethyl)-1(2H)-pyrimidinyl]-4-fluorophenyl}imino}-3-methyl-4-oxo-N-(phenylsulfonyl)-5-thiazolidineacetamide]
IPOHE rating ([1]; 0.0156 kg/ha): 0.0 | IPOHE rating ([1]; 0.0313 kg/ha): 0.0 | IPOHE rating ([1]; 0.0625 kg/ha): 0.0 | IPOHE rating ([1]; 0.2500 kg/ha): 1.0 | IPOHE rating ([1]; 0.5000 kg/ha): 9.0 | Herbicidal rating GALAP ([2]; rate 0.0156 kg/ha): 1.0 | Herbicidal rating GALAP ([2]; rate 0.0313 kg/ha): 1.0 | Herbicidal rating GALAP ([2]; rate 0.0625 kg/ha): 1.0 | Herbicidal rating GALAP ([2]; rate 0.1250 kg/ha): 4.0 | Herbicidal rating CYPSE ([3]; Rate 0.2500 kg/ha): 0.0 | Herbicidal rating CYPSE ([3]; Rate 0.5000 kg/ha): 0.0 | AMBEL rating ([4]; 0.0156 kg/ha): 0.0 | AMBEL rating ([4]; 0.0313 kg/ha): 0.0 | AMBEL rating ([4]; 0.0625 kg/ha): 0.0 | AMBEL rating ([4]; 0.2500 kg/ha): 4.0 | AMBEL rating ([4]; 0.5000 kg/ha): 7.0 | ECHORC herbicidal effect rating ([5]; 0.2500 kg/ha): 0.0 | ECHORC herbicidal effect rating ([5]; 0.5000 kg/ha): 2.0 | Herbicidal rating ECHORC ([6]; Rate 0.2500 kg/ha): 0.0 | Herbicidal rating ECHORC ([6]; Rate 0.5000 kg/ha): 2.0 | CYPSE herbicidal effect rating ([7]; 0.2500 kg/ha): 0.0 | CYPSE herbicidal effect rating ([7]; 0.5000 kg/ha): 0.0 | Herbicidal rating ZEAMX ([8]; rate 0.0156 kg/ha): 4.5 | Herbicidal rating ZEAMX ([8]; rate 0.0313 kg/ha): 5.0 | Herbicidal rating ZEAMX ([8]; rate 0.0625 kg/ha): 5.5 | Herbicidal rating ZEAMX ([8]; rate 0.1250 kg/ha): 6.5 | CYPIR herbicidal effect rating ([9]; 0.2500 kg/ha): 2.0 | CYPIR herbicidal effect rating ([9]; 0.5000 kg/ha): 6.0 | CHEAL rating ([10]; 0.0313 kg/ha): 6.0 | CHEAL rating ([10]; 0.0625 kg/ha): 5.0 | CHEAL rating ([10]; 0.2500 kg/ha): 1.0 | CHEAL rating ([10]; 0.5000 kg/ha): 9.0 | TRZAWR rating ([11]; 0.0156 kg/ha): 0.0 | TRZAWR rating ([11]; 0.0313 kg/ha): 0.0 | TRZAWR rating ([11]; 0.0625 kg/ha): 0.0 | TRZAWR rating ([11]; 0.2500 kg/ha): 0.0 | TRZAWR rating ([11]; 0.5000 kg/ha): 1.0 | ORYSAT rating ([12]; 0.0156 kg/ha): 0.0 | ORYSAT rating ([12]; 0.0313 kg/ha): 0.0 | ORYSAT rating ([12]; 0.0625 kg/ha): 0.0 | ORYSAT rating ([12]; 0.2500 kg/ha): 0.0 | ORYSAT rating ([12]; 0.5000 kg/ha): 1.0 | ZEAMX rating ([13]; 0.0156 kg/ha): 0.0 | ZEAMX rating ([13]; 0.0313 kg/ha): 0.0 | ZEAMX rating ([13]; 0.0625 kg/ha): 0.0 | ZEAMX rating ([13]; 0.2500 kg/ha): 0.0 | ZEAMX rating ([13]; 0.5000 kg/ha): 1.0 | Herbicidal rating CASOB ([14]; rate 0.0156 kg/ha): 0.0 | Herbicidal rating CASOB ([14]; rate 0.0313 kg/ha): 1.0 | Herbicidal rating CASOB ([14]; rate 0.0625 kg/ha): 1.0 | Herbicidal rating CASOB ([14]; rate 0.1250 kg/ha): 3.0
